Drawing on US20230365590A1, “BIPHENYL COMPOUND AS IMMUNOMODULATOR, PREPARATION METHOD THEREFOR AND APPLICATION THEREOF” (SHENZHEN CHIPSCREEN BIOSCIENCES CO., LTD., priority 2020, published 2023), this text covers IC50 for 11 compounds.

Chain of CD80/PD-L1 binding (recombinant human His-CD80 protein and PD-L1-Fc fusion protein) (Q9NZQ7 19-239): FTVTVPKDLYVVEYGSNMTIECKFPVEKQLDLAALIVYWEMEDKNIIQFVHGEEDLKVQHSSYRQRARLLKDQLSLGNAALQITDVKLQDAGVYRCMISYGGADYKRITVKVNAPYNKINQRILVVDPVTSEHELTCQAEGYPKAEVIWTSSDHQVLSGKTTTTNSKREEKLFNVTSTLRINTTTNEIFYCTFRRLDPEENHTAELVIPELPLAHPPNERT

The assay has as its target CD80/PD-L1 binding (recombinant human His-CD80 protein and PD-L1-Fc fusion protein) (Homo sapiens (Human), UniProt Q9NZQ7). Nature of the assay: In vitro inhibitory activity against CD80/PD-L1 binding (HTRF). To be noted: read-out: IC50 for inhibiting CD80/PD-L1 binding in vitro. An excerpt: In addition to PD-1, PD-L1 can also play an immune inhibition role by binding to CD80. Similarly, in vitro CD80/PD-L1 binding or binding inhibition test can also be conducted by homogeneous time-resolved fluorescence (HTRF). When the anti-hFc-Eu^3+ antibody and the anti-His-XL665 antibody are used to bind to the hFC tag fused to PD-L1 and the His tag fused to CD80 respectively, and after excitation with 320 nm laser, energy can be transferred from Eu element to XL665 fluorescein due to the binding of PD-L1 and CD80 to excite the XL665 fluorescein to emit light. When an inhibitor for inhibiting interaction of PD-L1 and CD80 is added, the binding of PD-L1 and CD80 is destroyed, causing a long distance between Eu and XL665. As a result, the energy cannot be transferred, and the XL665 fluorescein will not be excited.
The recombinant human CD80 protein with His tag (His-CD80 protein, Cat #: 10698-H08H-100) and the recombinant human PD-L1-Fc fusion protein (PD-L1-Fc fusion protein, Cat #: 10084-H02H-100) were purchased from Sino Biological Inc., anti-hFc-Eu^3+ antibody and anti-His-XL665 antibody were purchased from Cisbio, and other related reagents such as a diluent buffer (Diluent buffer 5 (Cat #: 62DL5DDC) and a detection buffer (PPI-European detection buffer, Cat #: 61DB9RDF) were purchased from Cisbio. Fluorescence detector Tecan (Spark 10M) was purchased from Tecan Company in Switzerland.
The experiment process was carried out according to the flow required in the operating manual of the test reagent (Invitrogen). The process was as follows: • (1) Experiment preparation: A test compound was diluted to different concentration gradients with the dilution buffer (the highest final concentration in a 20 μL final reaction system was 10 μM). The His-CD80 protein was diluted to 800 nM (the final concentration in the 20 final reaction system was 100 nM). The PD-L1-Fc fusion protein was diluted to 16 nM (the final concentration was 2 nM). The anti-His-XL665 antibody and the anti-hFc-Eu^3+antibody were diluted 20 times and 100 times respectively with the detection buffer according to reagent requirements. • (2) First, 5 μL of the test compound, 2.5 μL of the His-CD80 fusion protein and 2.5 μL of the […] fusion protein solution were well mixed and incubated at room temperature for 15 min; then, 5 μL of the anti-His-XL665 antibody and 5 μL of the anti-hFc-Eu^3+antibody were added to the system and further incubated for 3 h before test. • (3) During the test reaction, control groups were set, including a 0% inhibitory positive control without adding the test compound and a 100% inhibitory negative control without adding the CD80 protein. All tests were conducted by use of multiple holes. • (4) The fluorescence detector Tecan (Spark 10M) was used to detect the fluorescence signal of each hole. The excitation wavelength was 320 nm, and the emission wavelengths for detection were 620 nm and 665 nm, respectively. The strength of CD80/PD-L1 binding refers to a fluorescence signal ratio Em665/Em620. • (5) Calculation formula of binding inhibition rate of test compound: Inhibition rate (%)=[1−(fluorescence signal ratio of detected hole−fluorescence signal ratio of 100% inhibition negative control)]/(fluorescence signal ratio of 0% inhibition positive control — fluorescence signal ratio of 100% inhibition negative control)×100%. The 50% inhibition concentration (IC50) was calculated after the CD80/PD-L1 binding inhibition rates of the test compound with different concentration gradients were calculated respectively.
On the technique in general: In TR-FRET formats the signal depends on donor and acceptor labels being close together.
For the compound `COCC12CCC(CCCN3CCc4c(nc(C(=O)Nc5cccc(-c6cccc(NC(=O)c7nc8c(n7C)CCN(CCC79CCC(C(=O)O)(CC7)C9)C8)c6C)c5Cl)n4C)C3)(CC1)C2` [Compound I-1, 4-(2-(2-((2′-chloro-3′-(5-(3-(4-(methoxymethyl)bicyclo[2. 2.1]heptan-1-yl)propyl)-1-methyl-4,5,6,7-tetrahydro-1H-imidazo[4,5-c]pyridine-2-carboxamido) -2-methyl-[1,1′-biphenyl]-3-yl)carbamoyl)-1-methyl-1,4,6,7-tetrahydro-5H-imidazo[4,5-c]pyridin-5-yl)ethyl)bicyclo[2.2.1]heptane-1-carboxylic acid], the IC50 came to 0.84 nM.
The figure for `COCC12CCC(CCCN3CCc4c(nc(C(=O)Nc5cccc(-c6cccc(NC(=O)c7nc8c(n7C)CCN(CCC79CCC(C(=O)O)(CC7)C9)C8)c6Cl)c5C)n4C)C3)(CC1)C2` [Compound I-2, 4-(2-(2-((2-chloro-3′-(5-(3-(4-(methoxymethyl)bicyclo[2.2.1]heptan-1-yl)propyl)-1-methyl-4,5,6,7-tetrahydro-1H-imidazo[4,5-c]pyridine-2-carboxamido)-2′-methyl-[1,1′-biphenyl]-3-yl)carbamoyl)-1-methyl-1,4,6,7-tetrahydro-5H-imidazo[4,5-c]pyridin-5-yl)ethyl)bicyclo[2.2.1]heptane-1-carboxylic acid] is 0.79 nM; for `CCOCC12CCC(CCN3CCc4c(nc(C(=O)Nc5cccc(-c6cccc(NC(=O)c7nc8c(n7C)CCN(CCC79CCC(C(=O)O)(CC7)C9)C8)c6C)c5Cl)n4C)C3)(CC1)C2` [Compound I-3, 4-(2-(2-((2′-chloro-3′-(5-(2-(4-(ethoxymethyl)bicyclo[2.2.1]heptan-1-yl)ethyl)-1-methyl-4,5 ,6,7-tetrahydro-1H-imidazo[4,5-c]pyridine-2-carboxamido)-2-methyl-[1,1′-biphenyl]-3-yl)carbamoyl)-1-methyl-1,4,6,7-tetrahydro-5H-imidazo[4,5-c]pyridin-5-yl)ethyl)bicyclo[2.2.1]heptane-1-carboxylic acid] it is 0.96 nM; for `COCC12CCC(CCN3CCc4c(nc(C(=O)Nc5cccc(-c6cccc(NC(=O)c7nc8c(n7C)CCN(CCC79CCC(C(=O)O)(CC7)C9)C8)c6C)c5Cl)n4C)C3)(CC1)C2` [Compound I-4, 4-(2-(2-((2′-chloro-3′-(5-(2-(4-(methoxymethyl)bicyclo[2. 2.1]heptan-1-yl)ethyl)-1-methyl-4,5,6,7-tetrahydro-1H-imidazo[4,5-c]pyridine-2-carboxamido)-2-methyl-[1 ,1′-biphenyl]-3-yl)carbamoyl)-1-methyl-1,4,6,7-tetrahydro-5H-imidazo[4,5-c]pyridin-5-yl)ethyl)bicyclo[2.2.1]heptane-1-carboxylic acid] it is 2.78 nM.
For `COCC12CCC(CCN3CCc4c(nc(C(=O)Nc5cccc(-c6cccc(NC(=O)c7nc8c(n7C)CCN(CCC79CCC(C(=O)O)(CC7)C9)C8)c6Cl)c5C)n4C)C3)(CC1)C2` [Compound I-5, 4-(2-(2-((2-chloro-3′-(5-(2-(4-(methoxymethyl)bicyclo[2.2.1]heptan-1-yl)ethyl)-1-methyl-4,5,6,7-tetrahydro-1H-imidazo[4,5-c]pyridine-2-carboxamido)-2′-methyl-[1,1′-biphenyl]-3-yl)carbamoyl)-1-methyl-1,4,6,7-tetrahydro-5H-imidazo [4,5-c]pyridin-5-yl)ethyl)bicyclo[2.2.1]heptane-1-carboxylic acid], the IC50 amounted to 2.16 nM.
As to `Cn1c(C(=O)Nc2cccc(-c3cccc(NC(=O)c4nc5c(n4C)CCN(CCC46CCC(C(=O)O)(CC4)C6)C5)c3Cl)c2Cl)nc2c1CCN(CCC13CCC(COC(F)F)(CC1)C3)C2` [Compound I-7, 4-(2-(2-((2,2′-dichloro-3′-(5-(2-(4-((difluoromethoxy)methyl)bicyclo[2.2.1]heptan-1-yl)ethyl)-1-methyl-4,5,6,7-tetrahydro-1H-imidazo[4,5-c]pyridine-2-carboxamido)-[1,1′-biphenyl]-3-yl)carbamoyl)-1-methyl-1,4,6,7-tetrahydro-5H-imidazo[4,5-c]pyridin-5-yl)ethyl)bicyclo[2.2.1]heptane-1-carboxylic acid], the IC50 amounted to 0.33 nM.
On to `COCC12CCC(CN3CCc4c(nc(C(=O)Nc5cccc(-c6cccc(NC(=O)c7nc8c(n7C)CCN(CCC79CCC(C(=O)O)(CC7)C9)C8)c6Cl)c5Cl)n4C)C3)(CC1)C2` [Compound I-8, 4-(2-(2-((2,2′-dichloro-3′-(5-((4-(methoxymethyl)bicyclo[2.2.1]heptan-1-yl)methyl)-1-methyl-4,5,6,7-tetrahydro-1H-imidazo[4,5-c]pyridine-2-carboxamido)-[1, 1′-biphenyl]-3-yl)carbamoyl)-1-methyl-1,4,6,7-tetrahydro-5H-imidazo[4,5-c]pyridin-5-yl)ethyl)bicyclo[2.2.1]heptane-1-carboxylic acid], for which the IC50 amounted to 3.4 nM.
With `COCC12CCC(CCN3CCc4c(nc(C(=O)Nc5cccc(-c6cccc(NC(=O)c7nc8c(n7C)CCN(CCC79CCC(C(=O)O)(CC7)C9)C8)c6Cl)c5F)n4C)C3)(CC1)C2` [Compound I-9, 4-(2-(2-((2-chloro-2′-fluoro-3′-(5-(2-(4-(methoxymethyl)bicyclo[2.2.1]heptan-1-yl)ethyl)-1-methyl-4,5,6,7-tetrahydro-1H-imidazo [4,5-c]pyridine-2-carboxamido)-[1,1′-biphenyl]-3-yl)carbamoyl)-1-methyl-1,4,6,7-tetrahydro-5H-imidazo[4,5-c]pyridin-5-yl)ethyl)bicyclo[2.2.1]heptane-1-carboxylic acid] the figure was 0.41 nM; with `Cn1c(C(=O)Nc2cccc(-c3cccc(NC(=O)c4nc5c(n4C)CCN(CCC46CCC(C(=O)O)(CC4)C6)C5)c3Cl)c2F)nc2c1CCN(CCC13CCC(COC(F)F)(CC1)C3)C2` [Compound I-10, 4-(2-(2-((2-chloro-3′-(5-(2-(4-((difluoromethoxy)methyl)bicyclo[2.2.1]heptan-1-yl)ethyl)-1-methyl-4,5,6,7-tetrahydro-1H-imidazo[4,5-c]pyridine-2-carboxamido)-2′-fluoro-[1,1′-biphenyl]-3-yl)carbamoyl)-1-methyl-1,4,6,7-tetrahydro-5H-imidazo[4,5-c]pyridin-5-yl)ethyl)bicyclo[2.2.1]heptane-1-carboxylic acid], 0.62 nM.
As for `COCC12CCC(CCN3CCc4c(nc(C(=O)Nc5cccc(-c6cccc(NC(=O)c7nc8c(n7C)CCN(CCC79CCC(C(=O)O)(CC7)C9)C8)c6Cl)c5C#N)n4C)C3)(CC1)C2` [Compound I-11, 4-(2-(2-((2-chloro-2′-cyano-3′-(5-(2-(4-(methoxymethyl)bicyclo[2.2.1]heptan-1-yl)ethyl)-1-methyl-4,5,6,7-tetrahydro-1H-imidazo[4,5-c]pyridine-2-carboxamido)-[1,1′-biphenyl]-3-yl)carbamoyl)-1-methyl-1,4,6,7-tetrahydro-5H-imidazo[4,5-c]pyridin-5-yl)ethyl)bicyclo[2.2.1]heptane-1-carboxylic acid], the IC50 was 1.43 nM.
The figure for `COCC12CCC(CCN3CCc4c(nc(C(=O)Nc5cccc(-c6cccc(NC(=O)c7nc8c(n7C)CCN(CC79CCC(C(=O)O)(CC7)C9)C8)c6Cl)c5C)n4C)C3)(CC1)C2` [Compound I-12, 4-((2-((2-chloro-3′-(5-(2-(4-(methoxymethyl)bicyclo[2.2.1]heptan-1-yl)ethyl)-1-methyl-4,5,6,7-tetrahydro-1H-imidazo[4,5-c]pyridine-2-carboxamido)-2′-methyl-[1,1′-biphenyl]-3-yl)carbamoyl)-1-methyl-1,4,6,7-tetrahydro-5H-imidazo[4,5-c]pyridin-5-yl)methyl)bicyclo[2.2.1]heptane-1-carboxylic acid] is 1.64 nM.
